Target: T1, HDAC6 (Homo sapiens, UniProt Q9UBN7)
T1 sequence (Q9UBN7 1-1215): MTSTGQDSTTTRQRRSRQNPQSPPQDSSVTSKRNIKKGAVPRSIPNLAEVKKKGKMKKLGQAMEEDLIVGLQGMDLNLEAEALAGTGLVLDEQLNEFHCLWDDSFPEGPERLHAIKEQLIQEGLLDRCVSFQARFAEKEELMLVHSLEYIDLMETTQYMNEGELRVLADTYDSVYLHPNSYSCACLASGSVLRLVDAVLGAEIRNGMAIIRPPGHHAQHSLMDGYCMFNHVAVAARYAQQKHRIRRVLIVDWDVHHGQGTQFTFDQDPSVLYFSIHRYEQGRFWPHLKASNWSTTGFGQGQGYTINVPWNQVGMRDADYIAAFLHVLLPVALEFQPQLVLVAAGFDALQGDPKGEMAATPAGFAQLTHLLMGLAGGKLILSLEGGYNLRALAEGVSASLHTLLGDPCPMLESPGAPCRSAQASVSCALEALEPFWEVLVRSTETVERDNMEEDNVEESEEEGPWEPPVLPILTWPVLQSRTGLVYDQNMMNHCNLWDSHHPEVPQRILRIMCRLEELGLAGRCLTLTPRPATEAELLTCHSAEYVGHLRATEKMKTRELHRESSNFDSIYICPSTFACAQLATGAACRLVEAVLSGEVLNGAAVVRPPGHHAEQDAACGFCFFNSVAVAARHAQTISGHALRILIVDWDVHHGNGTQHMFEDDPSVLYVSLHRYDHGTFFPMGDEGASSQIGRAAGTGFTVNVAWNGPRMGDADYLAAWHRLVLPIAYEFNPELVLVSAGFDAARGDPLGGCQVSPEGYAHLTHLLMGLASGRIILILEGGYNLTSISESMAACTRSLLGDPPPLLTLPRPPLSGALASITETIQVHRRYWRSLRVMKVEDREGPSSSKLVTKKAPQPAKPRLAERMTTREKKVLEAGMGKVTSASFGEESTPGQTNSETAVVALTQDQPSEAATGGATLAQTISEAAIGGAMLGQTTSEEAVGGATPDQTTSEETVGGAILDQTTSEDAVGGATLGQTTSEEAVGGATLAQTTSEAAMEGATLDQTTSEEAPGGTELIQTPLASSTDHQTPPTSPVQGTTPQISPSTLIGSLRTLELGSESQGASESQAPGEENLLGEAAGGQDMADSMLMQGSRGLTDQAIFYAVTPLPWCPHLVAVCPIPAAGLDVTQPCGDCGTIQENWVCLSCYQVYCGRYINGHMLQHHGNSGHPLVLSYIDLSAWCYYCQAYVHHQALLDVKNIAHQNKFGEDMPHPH
Assay: LCMS characterization of enzymatic deacetylation by HDAC6
Type: biochemical
Details: 5 μM probe, 12 hours at 37° C.
Protocol: The enzymatic cleavage of HP-1 and HP-2 was analyzed by performing LCMS assays with HeLa nuclear extract (AnaSpec), HeLa whole cell lysate (Santa Cruz Inc.), and the following purified HDAC isoforms: 1, 2, 3, 6 and 8 (HDAC1, 3 and 8 from Cayman Chemicals and HDAC2 and 6 provided by Dr. Stephen Haggarty). Solutions containing (i) vehicle with DMSO in HDAC buffer, (ii) 5 μM probe in HDAC buffer, (iii) 5 μM probe and HDAC enzyme/HeLa nuclear extract/HeLa whole cell lysate in HDAC buffer, or (iv) 5 μM probe and HDAC enzyme/HeLa nuclear extract/HeLa whole cell lysate pre-incubated with 10 μM SAHA (Provided by Dr. Stephen Haggarty) in HDAC buffer were incubated for 12 hours at 37° C. Following incubation, a 20 μL aliquot of supernatant from each sample was analyzed by LCMS. […] For HP-1, the (M+H)^+ ion for the corresponding aldehyde (8, DHP-1) was detected, which formed following reaction of the initial imine deacetylation product with water. […] The peak area for each detected compound was measured to determine the % deacetylation of each probe. All assay samples were analyzed in triplicate. […]
LCMS characterization of HDAC enzymatic action on HP-1 and HP-2. […] Following incubation, an aliquot of supernatant from each sample was analyzed by LCMS. […] The peak area for each detected compound was measured to determine the % deacetylation of each probe (full experimental details in Example 1).

Compound: CC(=O)NC=CCCCCNC(=O)CCCCCNc1ccc([N+](=O)[O-])c2nonc12 [HP-1]
- % HP-1 to DHP-1 (HDAC6, +SAHA (10 μM)): 0%
- % HP-1 to DHP-1 (HDAC6, −SAHA): 0%
